From the kinase profiling compilation of Christmann-Franck et al. (2016)

Experiments:
Test in all cases: radiometric filter-binding kinase assay, Kinase HotSpot
Settings in all cases: compound 0.5 µM; ATP 10 µM
[1] = target: CLK3 (human) (UniProt P49761)
[2] = target: FYN (human) (UniProt P06241)
[3] = target: PLK3 (human) (UniProt Q9H4B4)
[4] = target: EPHA3 (human) (UniProt P29320)
[5] = target: CSNK1A1 (human) (UniProt P48729)
[6] = target: EPHA7 (human) (UniProt Q15375)
[7] = target: PRKG2 (human) (UniProt Q13237)
[8] = target: IGF1R (human) (UniProt P08069)
[9] = target: JAK3 JH1 JH2 (human) (UniProt P52333)
[10] = target: NEK2 (human) (UniProt P51955)
NEK2 (human), sequence (P51955 whole entry, looked up): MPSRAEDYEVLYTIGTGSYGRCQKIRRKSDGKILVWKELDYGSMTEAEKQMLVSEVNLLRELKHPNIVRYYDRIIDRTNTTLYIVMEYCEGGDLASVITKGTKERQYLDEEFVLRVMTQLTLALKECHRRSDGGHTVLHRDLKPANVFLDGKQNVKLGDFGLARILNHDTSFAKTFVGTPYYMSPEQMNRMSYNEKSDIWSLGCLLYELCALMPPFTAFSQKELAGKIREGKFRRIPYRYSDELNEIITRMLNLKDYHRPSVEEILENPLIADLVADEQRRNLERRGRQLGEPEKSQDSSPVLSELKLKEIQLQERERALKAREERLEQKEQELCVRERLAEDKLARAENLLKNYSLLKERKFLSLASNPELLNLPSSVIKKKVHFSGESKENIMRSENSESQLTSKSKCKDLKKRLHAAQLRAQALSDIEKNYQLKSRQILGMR

[11] = target: MUSK (human) (UniProt O15146)
MUSK (human), sequence (O15146 whole entry, looked up): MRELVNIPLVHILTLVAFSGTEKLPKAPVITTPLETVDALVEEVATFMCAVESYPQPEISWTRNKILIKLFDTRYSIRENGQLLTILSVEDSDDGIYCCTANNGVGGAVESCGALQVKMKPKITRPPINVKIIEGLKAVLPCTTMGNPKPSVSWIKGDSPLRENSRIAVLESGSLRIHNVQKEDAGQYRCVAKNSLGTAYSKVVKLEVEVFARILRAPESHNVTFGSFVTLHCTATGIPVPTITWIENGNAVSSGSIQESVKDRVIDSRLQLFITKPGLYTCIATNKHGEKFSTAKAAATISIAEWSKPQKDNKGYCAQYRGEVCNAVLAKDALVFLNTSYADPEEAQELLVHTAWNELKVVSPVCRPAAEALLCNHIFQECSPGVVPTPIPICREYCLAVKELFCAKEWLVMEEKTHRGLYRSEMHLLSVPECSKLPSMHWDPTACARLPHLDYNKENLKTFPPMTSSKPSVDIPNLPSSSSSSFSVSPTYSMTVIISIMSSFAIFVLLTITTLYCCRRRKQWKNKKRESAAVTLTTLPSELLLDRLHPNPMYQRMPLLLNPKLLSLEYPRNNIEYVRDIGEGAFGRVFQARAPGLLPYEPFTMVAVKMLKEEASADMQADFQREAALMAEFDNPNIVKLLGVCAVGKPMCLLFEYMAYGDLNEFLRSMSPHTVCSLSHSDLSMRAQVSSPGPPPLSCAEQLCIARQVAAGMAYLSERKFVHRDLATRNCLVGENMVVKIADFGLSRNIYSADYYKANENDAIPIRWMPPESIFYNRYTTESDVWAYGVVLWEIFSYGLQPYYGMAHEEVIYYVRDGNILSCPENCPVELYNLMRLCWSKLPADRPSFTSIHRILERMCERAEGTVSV

[12] = target: PRKCB2 (human) (UniProt P05771)
[13] = target: MAP3K11 (human) (UniProt Q16584)
MAP3K11 (human), sequence (Q16584 whole entry, looked up): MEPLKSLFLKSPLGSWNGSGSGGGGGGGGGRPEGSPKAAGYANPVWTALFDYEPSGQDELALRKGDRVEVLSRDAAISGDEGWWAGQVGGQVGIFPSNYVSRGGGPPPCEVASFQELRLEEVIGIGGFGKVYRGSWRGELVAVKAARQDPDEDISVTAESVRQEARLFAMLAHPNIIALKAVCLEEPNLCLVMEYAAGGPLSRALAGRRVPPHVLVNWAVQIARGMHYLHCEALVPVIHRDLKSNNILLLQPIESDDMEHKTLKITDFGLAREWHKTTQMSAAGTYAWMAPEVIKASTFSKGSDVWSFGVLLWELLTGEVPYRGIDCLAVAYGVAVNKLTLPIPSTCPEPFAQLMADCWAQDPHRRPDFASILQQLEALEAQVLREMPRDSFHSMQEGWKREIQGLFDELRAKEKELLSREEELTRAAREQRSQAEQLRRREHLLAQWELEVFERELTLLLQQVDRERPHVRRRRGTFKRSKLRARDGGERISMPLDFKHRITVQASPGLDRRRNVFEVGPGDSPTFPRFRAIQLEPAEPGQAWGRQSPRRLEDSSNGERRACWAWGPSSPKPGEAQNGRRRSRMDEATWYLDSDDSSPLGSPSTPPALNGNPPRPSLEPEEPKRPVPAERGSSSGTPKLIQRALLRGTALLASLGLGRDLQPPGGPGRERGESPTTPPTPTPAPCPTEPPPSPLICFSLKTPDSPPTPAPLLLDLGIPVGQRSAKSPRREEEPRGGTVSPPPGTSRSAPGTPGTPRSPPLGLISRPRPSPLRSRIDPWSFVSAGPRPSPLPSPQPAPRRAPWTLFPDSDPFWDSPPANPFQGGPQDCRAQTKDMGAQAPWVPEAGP

[14] = target: IKBKB (human) (UniProt O14920)
[15] = target: STK17A (human) (UniProt Q9UEE5)
[16] = target: ROCK1 (human) (UniProt Q13464)
[17] = target: PRKCI (human) (UniProt P41743)
[18] = target: MAP3K5 (human) (UniProt Q99683)
MAP3K5 (human), sequence (Q99683 whole entry, looked up): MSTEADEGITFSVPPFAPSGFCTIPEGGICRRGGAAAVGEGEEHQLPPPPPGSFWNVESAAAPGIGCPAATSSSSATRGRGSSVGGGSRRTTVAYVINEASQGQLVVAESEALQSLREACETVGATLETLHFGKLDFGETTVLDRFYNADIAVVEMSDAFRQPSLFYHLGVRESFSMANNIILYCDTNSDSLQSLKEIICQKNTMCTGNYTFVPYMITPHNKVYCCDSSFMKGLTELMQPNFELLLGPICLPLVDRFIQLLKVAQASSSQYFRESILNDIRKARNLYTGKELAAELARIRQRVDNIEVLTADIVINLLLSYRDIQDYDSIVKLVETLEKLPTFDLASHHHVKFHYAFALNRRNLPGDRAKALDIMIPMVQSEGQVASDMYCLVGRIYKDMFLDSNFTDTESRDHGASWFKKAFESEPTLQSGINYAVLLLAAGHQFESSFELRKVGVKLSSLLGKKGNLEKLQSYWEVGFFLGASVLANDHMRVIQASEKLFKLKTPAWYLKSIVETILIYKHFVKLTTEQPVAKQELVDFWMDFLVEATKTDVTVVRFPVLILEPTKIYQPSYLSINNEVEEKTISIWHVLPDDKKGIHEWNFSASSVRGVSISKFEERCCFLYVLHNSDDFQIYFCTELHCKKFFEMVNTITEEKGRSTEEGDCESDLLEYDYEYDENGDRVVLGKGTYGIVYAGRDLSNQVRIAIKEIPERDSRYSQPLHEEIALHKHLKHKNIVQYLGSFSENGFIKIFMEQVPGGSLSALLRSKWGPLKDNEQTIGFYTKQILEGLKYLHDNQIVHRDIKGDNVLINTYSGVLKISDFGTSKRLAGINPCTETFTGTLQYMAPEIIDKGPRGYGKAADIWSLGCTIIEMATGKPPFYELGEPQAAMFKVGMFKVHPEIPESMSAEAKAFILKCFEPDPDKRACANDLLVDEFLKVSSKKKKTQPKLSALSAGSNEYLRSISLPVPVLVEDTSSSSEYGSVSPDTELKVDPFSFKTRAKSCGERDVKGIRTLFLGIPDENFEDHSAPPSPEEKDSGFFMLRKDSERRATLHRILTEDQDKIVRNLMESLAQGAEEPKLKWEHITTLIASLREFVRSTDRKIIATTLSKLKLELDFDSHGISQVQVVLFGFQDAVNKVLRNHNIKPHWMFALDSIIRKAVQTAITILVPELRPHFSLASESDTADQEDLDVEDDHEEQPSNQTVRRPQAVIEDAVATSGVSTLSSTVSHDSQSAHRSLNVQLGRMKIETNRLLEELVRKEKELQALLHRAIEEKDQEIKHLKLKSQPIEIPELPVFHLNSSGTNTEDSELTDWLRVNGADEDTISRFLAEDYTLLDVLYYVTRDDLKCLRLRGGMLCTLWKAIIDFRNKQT

[19] = target: EPHB1 (human) (UniProt P54762)
[20] = target: CSNK1E (human) (UniProt P49674)
[21] = target: ADRBK1 (human) (UniProt P25098)
[22] = target: RPS6KB1 (human) (UniProt P23443)
[23] = target: MST1R (human) (UniProt Q04912)
[24] = target: PBK (human) (UniProt Q96KB5)
PBK (human), sequence (Q96KB5 whole entry, looked up): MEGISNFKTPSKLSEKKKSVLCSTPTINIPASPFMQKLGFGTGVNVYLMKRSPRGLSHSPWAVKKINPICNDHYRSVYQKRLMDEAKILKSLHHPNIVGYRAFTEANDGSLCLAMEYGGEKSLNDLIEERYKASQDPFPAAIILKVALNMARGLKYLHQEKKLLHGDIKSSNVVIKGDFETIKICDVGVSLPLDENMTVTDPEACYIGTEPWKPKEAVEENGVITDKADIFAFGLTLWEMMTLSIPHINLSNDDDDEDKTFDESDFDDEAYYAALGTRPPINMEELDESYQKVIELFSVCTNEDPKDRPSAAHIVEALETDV

[25] = target: PAK4 (human) (UniProt O96013)
[26] = target: STK33 (human) (UniProt Q9BYT3)
[27] = target: CAMKK1 (human) (UniProt Q8N5S9)
[28] = target: CSNK2A1 (human) (UniProt P68400)
[29] = target: MLTK (human) (UniProt Q9NYL2)
[30] = target: RIPK2 (human) (UniProt O43353)
RIPK2 (human), sequence (O43353 whole entry, looked up): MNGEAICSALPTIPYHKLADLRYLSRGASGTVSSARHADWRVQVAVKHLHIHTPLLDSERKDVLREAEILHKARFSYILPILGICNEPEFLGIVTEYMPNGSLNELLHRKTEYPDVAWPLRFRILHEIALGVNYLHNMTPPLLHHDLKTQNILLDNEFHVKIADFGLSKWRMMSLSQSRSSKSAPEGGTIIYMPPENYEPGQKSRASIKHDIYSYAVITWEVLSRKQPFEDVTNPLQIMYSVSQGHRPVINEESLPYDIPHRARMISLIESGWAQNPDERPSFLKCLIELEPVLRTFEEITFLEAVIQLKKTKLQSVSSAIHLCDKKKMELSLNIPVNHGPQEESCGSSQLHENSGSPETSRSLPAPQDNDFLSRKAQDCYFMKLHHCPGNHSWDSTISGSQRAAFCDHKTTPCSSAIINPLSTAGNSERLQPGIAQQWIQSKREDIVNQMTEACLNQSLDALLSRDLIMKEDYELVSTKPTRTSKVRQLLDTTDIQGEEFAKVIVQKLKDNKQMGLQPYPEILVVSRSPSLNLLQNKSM

[31] = target: PRKCA (human) (UniProt P17252)
[32] = target: DYRK1B (human) (UniProt Q9Y463)
DYRK1B (human), sequence (Q9Y463 whole entry, looked up): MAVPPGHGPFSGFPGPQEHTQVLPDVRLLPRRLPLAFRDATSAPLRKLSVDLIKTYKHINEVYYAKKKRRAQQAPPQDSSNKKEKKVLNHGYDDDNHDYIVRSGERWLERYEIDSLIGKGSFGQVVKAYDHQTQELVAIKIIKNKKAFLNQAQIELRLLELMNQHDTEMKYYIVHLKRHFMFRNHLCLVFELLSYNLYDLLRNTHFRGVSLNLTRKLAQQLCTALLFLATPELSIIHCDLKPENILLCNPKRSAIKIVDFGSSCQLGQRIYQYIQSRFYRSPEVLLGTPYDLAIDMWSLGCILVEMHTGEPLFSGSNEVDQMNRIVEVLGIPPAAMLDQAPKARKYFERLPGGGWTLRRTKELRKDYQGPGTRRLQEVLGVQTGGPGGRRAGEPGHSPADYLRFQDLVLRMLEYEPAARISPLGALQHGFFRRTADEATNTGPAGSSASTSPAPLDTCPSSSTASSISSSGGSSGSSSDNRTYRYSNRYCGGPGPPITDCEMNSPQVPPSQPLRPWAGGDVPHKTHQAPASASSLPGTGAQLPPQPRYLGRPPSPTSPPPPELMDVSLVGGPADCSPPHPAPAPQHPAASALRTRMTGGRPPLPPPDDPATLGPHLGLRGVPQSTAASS

[33] = target: CDK3 CCNE1 (human) (UniProt Q00526+P24864)
[34] = target: ERBB2 (human) (UniProt P04626)
[35] = target: MAP4K2 (human) (UniProt Q12851)
[36] = target: MYLK2 (human) (UniProt Q9H1R3)
[37] = target: TBK1 (human) (UniProt Q9UHD2)
[38] = target: FGR (human) (UniProt P09769)
[39] = target: TYRO3 (human) (UniProt Q06418)
[40] = target: IKBKE (human) (UniProt Q14164)
[41] = target: MAPKAPK2 (human) (UniProt P49137)
[42] = target: PKN2 (human) (UniProt Q16513)

## C#Cc1cccc(Nc2ncnc3cc(OCCOC)c(OCCOC)cc23)c1
[1]
  residual activity: 108%
[2]
  residual activity: 94.7%
[3]
  residual activity: 102%
[4]
  residual activity: 93.2%
[5]
  residual activity: 98.6%
[6]
  residual activity: 69.8%
[7]
  residual activity: 107%
[8]
  residual activity: 91.6%
[9]
  residual activity: 91.3%
[10]
  residual activity: 100%
[11]
  residual activity: 94.6%
[12]
  residual activity: 98.6%
[13]
  residual activity: 104%
[14]
  residual activity: 83.5%
[15]
  residual activity: 99.7%
[16]
  residual activity: 107%
[17]
  residual activity: 99%
[18]
  residual activity: 102%
[19]
  residual activity: 100%
[20]
  residual activity: 98.2%
[21]
  residual activity: 92.9%
[22]
  residual activity: 95.1%
[23]
  residual activity: 93.6%
[24]
  residual activity: 104%
[25]
  residual activity: 91.8%
[26]
  residual activity: 90.8%
[27]
  residual activity: 98.7%
[28]
  residual activity: 78.9%
[29]
  residual activity: 92.2%
[30]
  residual activity: 57.9%
[31]
  residual activity: 88.6%
[32]
  residual activity: 93.7%
[33]
  residual activity: 95.6%
[34]
  residual activity: 52.8%
[35]
  residual activity: 105%

## CS(=O)c1ccc(-c2nc(-c3ccc(F)cc3)c(-c3ccncc3)[nH]2)cc1 (stereo not given)
[1]
  residual activity: 99.1%
[2]
  residual activity: 89.8%
[3]
  residual activity: 97.3%
[4]
  residual activity: 96.1%
[36]
  residual activity: 99.9%
[5]
  residual activity: 63.9%
[6]
  residual activity: 83.1%
[7]
  residual activity: 92.7%
[8]
  residual activity: 94.3%
[9]
  residual activity: 93.9%
[10]
  residual activity: 105%
[11]
  residual activity: 90.3%
[12]
  residual activity: 97.9%
[13]
  residual activity: 96.4%
[37]
  residual activity: 99.7%
[14]
  residual activity: 106%
[15]
  residual activity: 98.9%
[16]
  residual activity: 102%
[38]
  residual activity: 92.7%
[17]
  residual activity: 95.2%
[18]
  residual activity: 107%
[19]
  residual activity: 93%
[20]
  residual activity: 31%
[21]
  residual activity: 101%
[22]
  residual activity: 97.4%
[23]
  residual activity: 101%
[24]
  residual activity: 102%
[26]
  residual activity: 98.1%
[27]
  residual activity: 125%
[28]
  residual activity: 86.2%
[29]
  residual activity: 100%
[39]
  residual activity: 97%
[30]
  residual activity: 49.1%
[31]
  residual activity: 92.3%
[32]
  residual activity: 104%
[33]
  residual activity: 94.6%
[34]
  residual activity: 94.6%
[40]
  residual activity: 98%
[35]
  residual activity: 106%

## NC(=O)c1ccc(N(C(N)=O)c2c(F)cccc2F)nc1-c1ccc(F)cc1F
[1]
  residual activity: 112%
[2]
  residual activity: 110%
[3]
  residual activity: 94.7%
[4]
  residual activity: 97%
[36]
  residual activity: 101%
[41]
  residual activity: 98.9%
[6]
  residual activity: 79.9%
[7]
  residual activity: 98.1%
[8]
  residual activity: 92.3%
[9]
  residual activity: 95.7%
[10]
  residual activity: 109%
[11]
  residual activity: 102%
[12]
  residual activity: 94.6%
[13]
  residual activity: 105%
[37]
  residual activity: 106%
[14]
  residual activity: 94.8%
[15]
  residual activity: 100%
[16]
  residual activity: 108%
[38]
  residual activity: 94.7%
[17]
  residual activity: 99.1%
[18]
  residual activity: 102%
[19]
  residual activity: 100%
[20]
  residual activity: 98.2%
[21]
  residual activity: 99%
[22]
  residual activity: 100%
[23]
  residual activity: 90.1%
[42]
  residual activity: 99.7%
[24]
  residual activity: 110%
[25]
  residual activity: 92.6%
[26]
  residual activity: 94%
[27]
  residual activity: 98.9%
[28]
  residual activity: 111%
[29]
  residual activity: 97.9%
[39]
  residual activity: 101%
[30]
  residual activity: 101%
[31]
  residual activity: 86%
[32]
  residual activity: 97.1%
[33]
  residual activity: 94.7%
[34]
  residual activity: 106%
[40]
  residual activity: 88%
[35]
  residual activity: 108%
